Measured values taken from the supplement of paper PMC11061612.

Experiments:
Test in all cases: combination Emax (second highest fraction inhibited in the dose matrix, 72 h); higher = more inhibition; extreme values may be limits of the assay
[1] = test system: ALL-PO (B-Lymphoblastic Leukemia)
How it was run: (§1)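 After 24 hours at 37°C and 5% CO2 in 1536-well plates, cells in DMEM/F12 or RPMI plus 10% FBS received two-drug dose matrices for 72 hours. Viability came from CellTiter-Glo 2.0 luminescence and was scaled as inhibition, anchored at 0 by vehicle wells and at 1 by blank wells. Combination Emax is taken as the second-highest inhibition in the matrix, and Bliss excess as the observed combination effect less EA + EB − EA·EB, with EA and EB the single-agent effects.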

[2] = test system: BFTC-909 (Kidney Carcinoma)
How it was run: as §1

[3] = test system: EW-11 (Ewing's Sarcoma)
How it was run: as §1

[4] = test system: GAMG (Glioblastoma)
How it was run: as §1

[5] = test system: HeLa (Cervical Carcinoma)
How it was run: as §1

[6] = test system: Hs-746T (Gastric Carcinoma)
How it was run: as §1

[7] = test system: KYAE-1 (Esophageal Adenocarcinoma)
How it was run: as §1

[8] = test system: L-428 (Hodgkin's Lymphoma)
How it was run: as §1

[9] = test system: LCLC-97TM1 (Non-Small Cell Lung Carcinoma)
How it was run: as §1

[10] = test system: LNZTA3WT4 (Low Grade Glioma)
How it was run: as §1

[11] = test system: LOXIMVI (Melanoma)
How it was run: as §1

[12] = test system: LS-123 (Colorectal Carcinoma)
How it was run: as §1

[13] = test system: NCI-H2722 (Mesothelioma)
How it was run: as §1

[14] = test system: NCI-H524 (Small Cell Lung Carcinoma)
How it was run: as §1

[15] = test system: OV-56 (Ovarian Carcinoma)
How it was run: as §1

[16] = test system: SAS (Oral Cavity Carcinoma)
How it was run: as §1

[17] = test system: SNU-16 (Gastric Carcinoma)
How it was run: as §1

[18] = test system: SNU-449 (Hepatocellular Carcinoma)
How it was run: as §1

[19] = test system: SW1710 (Bladder Carcinoma)
How it was run: as §1

[20] = test system: WSU-NHL (B-Cell Non-Hodgkin's Lymphoma)
How it was run: as §1

Compound	combination Emax [1]	combination Emax [2]	combination Emax [3]	combination Emax [4]	combination Emax [5]	combination Emax [6]	combination Emax [7]	combination Emax [8]	combination Emax [9]	combination Emax [10]	combination Emax [11]	combination Emax [12]	combination Emax [13]	combination Emax [14]	combination Emax [15]	combination Emax [16]	combination Emax [17]	combination Emax [18]	combination Emax [19]	combination Emax [20]
Cc1c2c(nn1C)CSCc1cc(n(C)n1)CSc1cc(c3ccccc3c1)OCCCc1c(C(=O)O)n(C)c3c-2c(Cl)ccc13 [AZD5991] + CN(C)CCCOc1ccc(-c2ccc3ncc4c(c3c2)n(C2CCOCC2)c(=O)n4C)cn1 [AZD0156] (first compound max 1 µM, 7x7, partner max 1 µM)	1	0.239	0.803	0.255	0.46	0.358	0.177	0.23	0.286	0.227	0.363	0.162	0.243	0.452	0.181	0.268	0.974	0.25	0.219	0.92
Cc1c2c(nn1C)CSCc1cc(n(C)n1)CSc1cc(c3ccccc3c1)OCCCc1c(C(=O)O)n(C)c3c-2c(Cl)ccc13 [AZD5991] + C[C@@H]1COCCN1C2=NC(=NC(=C2)C3(CC3)[S@](=N)(=O)C)C4=C5C=CNC5=NC=C4 [AZD6738] (first compound max 1 µM, 7x7, partner max 10 µM)	1	0.931	0.932	0.579	0.856	0.551	0.207	0.808	0.894	0.761	0.742	0.609	0.401	0.854	0.558	0.849	1	0.198	0.436	0.994
Cc1c2c(nn1C)CSCc1cc(n(C)n1)CSc1cc(c3ccccc3c1)OCCCc1c(C(=O)O)n(C)c3c-2c(Cl)ccc13 [AZD5991] + C[C@@H](Nc1cc(F)cc(F)c1)c1cc(C(=O)N(C)C)cc2c(=O)cc(N3CCOCC3)oc12 [AZD8186] (first compound max 1 µM, 7x7, partner max 3 µM)	1	0.3	0.906	0.585	0.614	0.487	0.209	0.12	0.221	0.232	0.268	0.336	0.197	0.436	0.212	0.321	0.986	0.216	0.307	0.987
Cc1c2c(nn1C)CSCc1cc(n(C)n1)CSc1cc(c3ccccc3c1)OCCCc1c(C(=O)O)n(C)c3c-2c(Cl)ccc13 [AZD5991] + Cc1cc2ncnn2cc1Nc1ncc2c(n1)n(C1CCOCC1)c(=O)n2C [AZD7648] (first compound max 1 µM, 7x7, partner max 10 µM)	1	0.292	0.837	0.382	0.485	0.319	0.194	0.251	0.385	0.318	0.467	0.399	0.234	0.501	0.189	0.286	0.999	0.238	0.177	0.952
Cc1c2c(nn1C)CSCc1cc(n(C)n1)CSc1cc(c3ccccc3c1)OCCCc1c(C(=O)O)n(C)c3c-2c(Cl)ccc13 [AZD5991] + Cn1cnc2c(F)c(Nc3ccc(Br)cc3Cl)c(C(=O)NOCCO)cc21 [Selumetinib] (first compound max 1 µM, 7x7, partner max 3 µM)	1	0.3	0.76	0.299	0.496	0.422	0.163	0.0936	0.694	0.237	0.513	0.455	0.238	0.336	0.189	0.44	0.989	0.246	0.256	0.934
C[C@@H]1COCCN1c1cc(C2([S@](C)(=N)=O)CC2)nc(-c2ccnc3[nH]ccc23)n1 [AZD6738] + O=C(c1cc(Cc2n[nH]c(=O)c3ccccc23)ccc1F)N1CCN(C(=O)C2CC2)CC1 [Olaparib] (first compound max 10 µM, 7x7, partner max 10 µM)	0.955	0.728	0.72	0.388	0.713	0.582	0.139	0.728	0.826	0.778	0.978	0.764	0.292	0.746	0.69	0.839	0.956	0.234	0.495	0.989
NC1(C(=O)N[C@@H](CCO)c2ccc(Cl)cc2)CCN(c2ncnc3[nH]ccc23)CC1 [Capivasertib] + CC(=O)c1c(C)c2cnc(Nc3ccc(N4CCNCC4)cn3)nc2n(C2CCCC2)c1=O [Palbociclib] (first compound max 10 µM, 7x7, partner max 10 µM)	0.688	0.704	0.496	0.596	0.196	0.588	0.162	0.436	0.583	0.562	0.688	0.364	0.326	0.666	0.41	0.575	0.623	0.379	0.447	0.899
